“And” between values parts separate entries of the source, which are not always exact repeats. Equal entries are not always repeated.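 Values below derive from 48-hour exposures of cells grown in 96-well plates, with endpoints linearly interpolated between the two concentrations bracketing the appropriate inhibition level. GI50 = concentration required for 50% inhibition of growth. TGI marks complete inhibition of growth.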
Assays:
Assay in all cases: DTP human tumour cell line panel, 48 h
OVCAR-4 ovarian = system: OVCAR-4 ovarian
KM12 colon = system: KM12 colon
SF-268 CNS = system: SF-268 CNS
SN12C renal = system: SN12C renal
SF-295 CNS = system: SF-295 CNS
MDA-MB-231 breast = system: MDA-MB-231 breast
HOP-92 NSCLC = system: HOP-92 NSCLC
CAKI-1 renal = system: CAKI-1 renal
NCI-H226 lung = system: NCI-H226 lung
LOX IMVI melanoma = system: LOX IMVI melanoma

Row | Compound | GI50 (OVCAR-4 ovarian) [µM] | TGI (OVCAR-4 ovarian) | GI50 (KM12 colon) [µM] | TGI (KM12 colon) | GI50 (SF-268 CNS) [µM] | TGI (SF-268 CNS) | GI50 (SN12C renal) [µM] | TGI (SN12C renal) [µM] | GI50 (SF-295 CNS) [µM] | TGI (SF-295 CNS) | GI50 (MDA-MB-231 breast) [µM] | TGI (MDA-MB-231 breast) | GI50 (HOP-92 NSCLC) [µM] | TGI (HOP-92 NSCLC) | GI50 (CAKI-1 renal) [µM] | TGI (CAKI-1 renal) | GI50 (NCI-H226 lung) [µM] | TGI (NCI-H226 lung) | GI50 (LOX IMVI melanoma) [µM] | TGI (LOX IMVI melanoma)
1 | O=C(Nc1ccc(-c2ccnc(Nc3ccc(N4CCOCC4)cc3)n2)cc1)C1CCCN1 (stereo not drawn) | 12.2 | 43.1 µM | 7.49 | 27.3 µM | 4.9 | 44.8 µM | 4.47 | 44 | 4.18 | 20.4 µM | 7.77 | 23.1 µM | 4.1 | 24.4 µM | 3.29 | 17.7 µM | 6.69 | 52.5 µM | 2.27 | 13.9 µM
2 | COc1ccc(/C=C/c2cnc3ccccc3n2)cc1OC | – | > 100 µM | – | > 100 µM | – | > 100 µM | – | > 100 | – | > 100 µM | – | > 100 µM | – | > 100 µM | – | > 100 µM | – | > 100 µM | – | > 100 µM
3 | CC(C)N(Cc1ccccc1)S(=O)(=O)c1n[nH]c(C(C)(C)C)n1 | – | > 100 µM | – | > 100 µM | – | > 100 µM | – | > 100 | – | > 100 µM | – | > 100 µM | – | > 100 µM | – | > 100 µM | – | > 100 µM | – | > 100 µM
4 | Cc1cc(S(=O)(=O)Nc2nc3cc(-c4ccsc4)sc3c(=O)n2N)c(S)cc1Cl | 69.6 | > 100 µM | 68.6 | > 100 µM | 35.7 | > 100 µM | > 100 | > 100 | 29.7 | > 100 µM | 15.7 | > 100 µM | > 100 | > 100 µM | > 100 | > 100 µM | 49.7 | > 100 µM | 60.7 | > 100 µM
5 | Cc1cc(O)c2c(c1)C(=O)C(c1c(C)cc3c(c1O)C(=O)C1OC1C3=O)=CC2=O (stereo not drawn) | – | 11.1 µM | – | 28.8 µM | – | 26.2 µM | – | 11.2 | – | 32.6 µM | – | 4.14 µM | – | 2.11 µM | – | 2.11 µM | – | 32.8 µM | – | 5.87 µM
6 | N#C/C(=C\c1cccnc1)c1nc2ccccc2o1 | > 100 | > 100 µM | > 100 | > 100 µM | > 100 | > 100 µM | > 100 | > 100 | > 100 | > 100 µM | > 100 | > 100 µM | 40.8 | > 100 µM | > 100 | > 100 µM | > 100 | > 100 µM | > 100 | > 100 µM
7 | NC(=S)N/N=C\c1nccc2c(C(F)(F)C(F)(F)C(F)(F)F)cccc12 | 0.0329 | 1.49 µM | 0.0825 | 8.05 µM | 0.0983 | 4.22 µM | 0.116 | 2.31 | 0.209 | 1.7 µM | 0.0561 | 3 µM | 0.116 | 1.44 µM | 0.183 | 1.59 µM | 0.162 | 1.12 µM | 0.0725 | 1.34 µM
8 | CC(=O)Nc1cc2cc(NS(=O)(=O)c3cc(C(F)(F)F)cc(C(F)(F)F)c3)ccc2oc1=O | – | > 100 µM | – | > 100 µM | – | > 100 µM | – | > 100 | – | > 100 µM | – | > 100 µM | – | > 100 µM | – | > 100 µM | – | > 100 µM | – | > 100 µM
9 | CCC(=O)OC1=CN2C(=NC(c3ccc(N)cc3)=CC2c2cc(OC)c(OC)c(OC)c2)S1 (stereo not drawn) | 4.14 | 31.9 µM | 3.48 | 11.7 µM | 3.57 | 14.4 µM | 4.34 | 22.2 | 3.48 | 13.1 µM | 4.39 | 21.3 µM | 1.76 | 7.37 µM | 2.91 | 11.2 µM | 7.47 | > 100 µM | 3.45 | 13 µM
10 | O=[N+]([O-])c1ccc(NC(=S)N/N=C(\c2ccccc2)c2ccccn2)cc1 | – | 3.42 µM and 3.51 µM | – | 3.35 µM and 4.12 µM | – | 1.9 µM and 1.84 µM | – | 2.83 | 1.87 | 3.5 µM and 2.98 µM | 0.0286 | 2.06 µM and 1.86 µM | 1.32 | 3.39 µM and 2.6 µM | 1.36 | 3.02 µM and 2.97 µM | – | 2.98 µM and 3.03 µM | 1.37 | 2.89 µM and 5.03 µM
11 | CN(C)c1ccc(N=C(C#N)c2nc(N)nc(N3CCN(c4ccccc4)CC3)n2)cc1 | 18.9 | > 34.1 µM | 49.6 | > 50 µM | 11.7 | 34.9 µM | > 50 | > 50 | 14.7 | > 43.7 µM | 10.7 | 31.3 µM | 49.8 | > 50 µM | 20.4 | > 46.7 µM | 22.3 | > 50 µM | 19.6 | > 45.1 µM
12 | CC(=O)O[C@H](C[C@H](C(C)C)N(C)C(=O)[C@@H](NC(=O)[C@H]1CCCCN1C)C(C)(C)C)c1nc(C(=O)N[C@@H](Cc2ccccc2)C[C@H](C)C(=O)O)cs1 | 0.00525 | > 25 µM | < 0.0025 | – | 0.00432 | > 25 µM | < 0.0025 | > 25 | < 0.0025 | > 8.94 µM | < 0.0025 | – | < 0.0025 | 0.297 µM | < 0.0025 | > 25 µM | 0.0348 | – | < 0.0025 | > 25 µM
13 | CC[C@H](C)[C@H](NC(=O)c1nccn1C)C(=O)N(C)[C@H](C[C@@H](OC(C)=O)c1nc(C(=O)N[C@@H](Cc2ccccc2)C[C@H](C)C(=O)OC)cs1)C(C)C | 1.88 | > 33.3 µM | 0.553 | > 33.3 µM | 1.43 | > 33.3 µM | 2.41 | > 33.3 | 0.639 | 2.07 µM | 1.17 | 22 µM | 4.86 | > 33.3 µM | – | – | 8.51 | > 33.3 µM | 1.59 | > 33.3 µM
14 | C[C@H]1CCC/C=C/[C@@H]2C[C@H](O)C[C@H]2[C@H](O)[C@@H](SC2OC(CO)C(O)C(O)C2O)CC(=O)O1 (stereo partly drawn) | 54.1 | > 100 µM | 30.3 | 68 µM | – | – | > 100 | > 100 | > 100 | > 100 µM | 26.9 | 91 µM | > 100 | > 100 µM | > 100 | > 100 µM | 36.2 | > 100 µM | 35.7 | > 100 µM

Source: PubChem BioAssay (NCI)
